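How tested: cells in 96-well plates exposed to compound for 48 hours at five concentrations. GI50 = concentration required for 50% inhibition of growth.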 Calls of active or inactive are those of the source. Rule as the data show it: active = GI50 up to about 1.1 µM and inactive = higher.
Columns and labels:
Experiment in all cases: growth of human tumour cells (NCI), 48 h
786-0 = test system: 786-0
A498 = test system: A498
A549 = test system: A549
ACHN = test system: ACHN
BT-549 = test system: BT-549
CAKI-1 = test system: CAKI-1
DU-145 = test system: DU-145
EKVX = test system: EKVX
HCC 2998 = test system: HCC 2998
HCT-116 = test system: HCT-116
HCT-15 = test system: HCT-15
HL-60 = test system: HL-60
HOP-62 = test system: HOP-62
HOP-92 = test system: HOP-92
HT-29 = test system: HT-29
Hs-578T = test system: Hs-578T
IGROV-1 = test system: IGROV-1
K562 = test system: K562
KM12 = test system: KM12
LOX IMVI = test system: LOX IMVI
M14 = test system: M14
MCF7 = test system: MCF7
MDA-MB-231 = test system: MDA-MB-231
MDA-MB-435 = test system: MDA-MB-435
MDA-N = test system: MDA-N
MOLT-4 = test system: MOLT-4
NCI-H226 = test system: NCI-H226
NCI-H23 = test system: NCI-H23
NCI-H460 = test system: NCI-H460
NCI-H522 = test system: NCI-H522
NCI/ADR-RES = test system: NCI/ADR-RES
OVCAR-3 = test system: OVCAR-3
OVCAR-4 = test system: OVCAR-4
OVCAR-5 = test system: OVCAR-5
OVCAR-8 = test system: OVCAR-8
PC-3 = test system: PC-3
RPMI-8226 = test system: RPMI-8226
RXF 393 = test system: RXF 393
SF-268 = test system: SF-268
SF-295 = test system: SF-295
SF-539 = test system: SF-539
SK-MEL-28 = test system: SK-MEL-28
SK-MEL-2 = test system: SK-MEL-2
SK-MEL-5 = test system: SK-MEL-5
SNB-75 = test system: SNB-75
SR = test system: SR
SW-620 = test system: SW-620
T47D = test system: T47D
TK-10 = test system: TK-10
U-251 = test system: U-251
UACC-257 = test system: UACC-257
UO-31 = test system: UO-31
CCRF-CEM = test system: CCRF-CEM
COLO 205 = test system: COLO 205
Malme-3M = test system: Malme-3M
SK-OV-3 = test system: SK-OV-3
SN12C = test system: SN12C
SNB-19 = test system: SNB-19
UACC-62 = test system: UACC-62

SMILES: CC1=NN(c2cccc(Cl)c2)C2(SCC(=O)N2c2nc3ccccc3s2)/C1=C\c1cccs1 (centres undefined)
- GI50 (786-0): 19.5 µM (inactive)
- GI50 (A498): 25.4 µM (inactive)
- GI50 (A549): 33.8 µM (inactive)
- GI50 (ACHN): 27.9 µM (inactive)
- GI50 (BT-549): 17.6 µM (inactive)
- GI50 (CAKI-1): 29.7 µM (inactive)
- GI50 (DU-145): 46.5 µM (inactive)
- GI50 (EKVX): 14.6 µM (inactive)
- GI50 (HCC 2998): 16.6 µM (inactive)
- GI50 (HCT-116): 20.6 µM (inactive)
- GI50 (HCT-15): 20.7 µM
- GI50 (HL-60): 27.9 µM (inactive)
- GI50 (HOP-62): 28.2 µM (inactive)
- GI50 (HOP-92): 22.2 µM (inactive)
- GI50 (HT-29): 21.6 µM (inactive)
- GI50 (Hs-578T): 22.5 µM (inactive)
- GI50 (IGROV-1): 27.3 µM (inactive)
- GI50 (K562): 4.58 µM (inactive)
- GI50 (KM12): 25.8 µM (inactive)
- GI50 (LOX IMVI): 23.8 µM (inactive)
- GI50 (M14): 29.7 µM (inactive)
- GI50 (MCF7): 27.4 µM (inactive)
- GI50 (MDA-MB-231): 30.2 µM (inactive)
- GI50 (MDA-MB-435): 30.5 µM (inactive)
- GI50 (MDA-N): 21.1 µM (inactive)
- GI50 (MOLT-4): 11.4 µM (inactive)
- GI50 (NCI-H226): 20.3 µM (inactive)
- GI50 (NCI-H23): 18.5 µM (inactive)
- GI50 (NCI-H460): 27.2 µM (inactive)
- GI50 (NCI-H522): 21.2 µM (inactive)
- GI50 (NCI/ADR-RES): 21.9 µM (inactive)
- GI50 (OVCAR-3): 24.8 µM (inactive)
- GI50 (OVCAR-4): 21 µM (inactive)
- GI50 (OVCAR-5): 20.8 µM (inactive)
- GI50 (OVCAR-8): 20.8 µM (inactive)
- GI50 (PC-3): 25.5 µM (inactive)
- GI50 (RPMI-8226): 17.7 µM (inactive)
- GI50 (RXF 393): 20.3 µM (inactive)
- GI50 (SF-268): 18.9 µM (inactive)
- GI50 (SF-295): 27.4 µM (inactive)
- GI50 (SF-539): 5.01 µM (inactive)
- GI50 (SK-MEL-28): 29.4 µM (inactive)
- GI50 (SK-MEL-2): 18.8 µM (inactive)
- GI50 (SK-MEL-5): 18.1 µM (inactive)
- GI50 (SNB-75): 17.5 µM (inactive)
- GI50 (SR): 11.7 µM (inactive)
- GI50 (SW-620): 34.3 µM (inactive)
- GI50 (T47D): 24.9 µM (inactive)
- GI50 (TK-10): 31.7 µM (inactive)
- GI50 (U-251): 20.3 µM (inactive)
- GI50 (UACC-257): 24.4 µM (inactive)
- GI50 (UO-31): 22.4 µM (inactive)

SMILES: O=c1c2cc([N+](=O)[O-])ccc2oc2nc3n(c(=O)c12)CCCS3
- GI50 (786-0): 66.8 µM (inactive)
- GI50 (A498): > 100 µM (inactive)
- GI50 (A549): > 100 µM (inactive)
- GI50 (ACHN): > 100 µM (inactive)
- GI50 (BT-549): > 100 µM (inactive)
- GI50 (CAKI-1): > 100 µM (inactive)
- GI50 (CCRF-CEM): > 100 µM (inactive)
- GI50 (COLO 205): > 100 µM (inactive)
- GI50 (DU-145): > 100 µM (inactive)
- GI50 (EKVX): > 100 µM (inactive)
- GI50 (HCC 2998): > 100 µM (inactive)
- GI50 (HCT-116): > 100 µM (inactive)
- GI50 (HCT-15): > 100 µM
- GI50 (HOP-62): 40.9 µM (inactive)
- GI50 (HOP-92): > 100 µM (inactive)
- GI50 (Hs-578T): 56.1 µM (inactive)
- GI50 (IGROV-1): > 100 µM (inactive)
- GI50 (K562): > 100 µM (inactive)
- GI50 (KM12): > 100 µM (inactive)
- GI50 (M14): > 100 µM (inactive)
- GI50 (MCF7): > 100 µM (inactive)
- GI50 (MDA-MB-231): > 100 µM (inactive)
- GI50 (MDA-MB-435): > 100 µM (inactive)
- GI50 (MDA-N): > 100 µM (inactive)
- GI50 (MOLT-4): > 100 µM (inactive)
- GI50 (Malme-3M): > 100 µM (inactive)
- GI50 (NCI-H226): > 100 µM (inactive)
- GI50 (NCI-H23): > 100 µM (inactive)
- GI50 (NCI-H460): > 100 µM (inactive)
- GI50 (NCI-H522): > 100 µM (inactive)
- GI50 (NCI/ADR-RES): > 100 µM (inactive)
- GI50 (OVCAR-3): > 100 µM (inactive)
- GI50 (OVCAR-4): > 100 µM (inactive)
- GI50 (OVCAR-5): > 100 µM (inactive)
- GI50 (PC-3): > 100 µM (inactive)
- GI50 (RPMI-8226): > 100 µM (inactive)
- GI50 (RXF 393): > 100 µM (inactive)
- GI50 (SF-268): > 100 µM (inactive)
- GI50 (SF-295): > 100 µM (inactive)
- GI50 (SF-539): > 100 µM (inactive)
- GI50 (SK-MEL-28): > 100 µM (inactive)
- GI50 (SK-MEL-2): > 100 µM (inactive)
- GI50 (SK-MEL-5): > 100 µM (inactive)
- GI50 (SK-OV-3): > 100 µM (inactive)
- GI50 (SN12C): > 100 µM (inactive)
- GI50 (SNB-19): > 100 µM (inactive)
- GI50 (SNB-75): 64.9 µM (inactive)
- GI50 (SR): > 100 µM (inactive)
- GI50 (SW-620): > 100 µM (inactive)
- GI50 (T47D): > 100 µM (inactive)
- GI50 (TK-10): > 100 µM (inactive)
- GI50 (U-251): > 100 µM (inactive)
- GI50 (UACC-257): > 100 µM (inactive)
- GI50 (UACC-62): > 100 µM (inactive)
- GI50 (UO-31): > 100 µM (inactive)

SMILES: COC(=O)[C@H]1ON2O[C@H](OC3CCCC[C@@H]3c3ccccc3)C[C@@H]3CC[C@H]1[C@@]32C (some centres undefined)
- GI50 (786-0): > 100 µM (inactive)
- GI50 (A498): > 100 µM (inactive)
- GI50 (A549): 60.3 µM (inactive)
- GI50 (ACHN): > 100 µM (inactive)
- GI50 (BT-549): > 100 µM (inactive)
- GI50 (CAKI-1): > 100 µM (inactive)
- GI50 (CCRF-CEM): > 100 µM (inactive)
- GI50 (COLO 205): 91.4 µM (inactive)
- GI50 (DU-145): > 100 µM (inactive)
- GI50 (EKVX): 92.9 µM (inactive)
- GI50 (HCC 2998): > 100 µM (inactive)
- GI50 (HCT-116): 79.1 µM (inactive)
- GI50 (HCT-15): 89.9 µM
- GI50 (HL-60): 9.66 µM (inactive)
- GI50 (HOP-62): > 100 µM (inactive)
- GI50 (HOP-92): 81.7 µM (inactive)
- GI50 (HT-29): 51.8 µM (inactive)
- GI50 (Hs-578T): > 100 µM (inactive)
- GI50 (IGROV-1): > 100 µM (inactive)
- GI50 (K562): > 100 µM (inactive)
- GI50 (KM12): 95.9 µM (inactive)
- GI50 (LOX IMVI): > 100 µM (inactive)
- GI50 (M14): > 100 µM (inactive)
- GI50 (MCF7): 65.6 µM (inactive)
- GI50 (MDA-MB-231): > 100 µM (inactive)
- GI50 (MDA-MB-435): > 100 µM (inactive)
- GI50 (MDA-N): > 100 µM (inactive)
- GI50 (MOLT-4): 54.3 µM (inactive)
- GI50 (Malme-3M): > 100 µM (inactive)
- GI50 (NCI-H226): 49.4 µM (inactive)
- GI50 (NCI-H23): > 100 µM (inactive)
- GI50 (NCI-H460): > 100 µM (inactive)
- GI50 (NCI-H522): 45.9 µM (inactive)
- GI50 (NCI/ADR-RES): > 100 µM (inactive)
- GI50 (OVCAR-4): > 100 µM (inactive)
- GI50 (OVCAR-5): > 100 µM (inactive)
- GI50 (OVCAR-8): > 100 µM (inactive)
- GI50 (PC-3): 47.6 µM (inactive)
- GI50 (RPMI-8226): 69.7 µM (inactive)
- GI50 (RXF 393): 45.9 µM (inactive)
- GI50 (SF-268): > 100 µM (inactive)
- GI50 (SF-295): > 100 µM (inactive)
- GI50 (SK-MEL-28): > 100 µM (inactive)
- GI50 (SK-MEL-2): 84.5 µM (inactive)
- GI50 (SK-MEL-5): 56.4 µM (inactive)
- GI50 (SK-OV-3): > 100 µM (inactive)
- GI50 (SN12C): 31.6 µM (inactive)
- GI50 (SNB-19): > 100 µM (inactive)
- GI50 (SNB-75): 36.4 µM (inactive)
- GI50 (SR): 72.9 µM (inactive)
- GI50 (SW-620): > 100 µM (inactive)
- GI50 (T47D): 46.5 µM (inactive)
- GI50 (TK-10): > 100 µM (inactive)
- GI50 (U-251): 77.6 µM (inactive)
- GI50 (UACC-257): > 100 µM (inactive)
- GI50 (UACC-62): > 100 µM (inactive)
- GI50 (UO-31): 97.3 µM (inactive)
